Measured values taken from patent publication US20160375057A1, “THERAPEUTIC COMPOSITIONS AND METHODS INVOLVING CELL-PERMEABLE IRON” (priority 2015, published 2016).
Like-named read-outs stand apart in the source and are kept apart here.

Key:
[1] = system: MA148 ovarian cancer cells; assay: Synergy of doxorubicin and FAC, CCK-8 viability, Compusyn CI/DRI (Example 5, FIG. 5, Tables 3-4); type: cell-based, Human
Method: FIG. 5. […] (Chou et al., 2006, Pharmacol Rev 58:621-628).
Subsequently, they were treated with different concentrations of Doxorubicin in the presence or absence of FAC 200 uM. […] Five different combinations of FAC and Doxorubicin were used in this study. […] Values below the dotted line indicate synergy.

[2] = system: A2780 ovarian cancer cells; assay: Synergy of carboplatin and FAC, CCK-8 IC50 isobologram (Example 3, FIG. 3); conditions: read-out: IC50 (50% cell viability); agent alone, 48-hour treatment, CCK-8, A2780
Method: In these experiments, varying concentrations of the two reagents are added to tumor cells in an array format. Cytotoxicity was determined by CCK8 assay after 24 hours.
A2780 ovarian cancer cells were seeded into 96-well plates. […] Cell viability was determined by CCK-8 kit after 48-hour treatment with the drugs. […] IC50 values are shown as individual data points.

[3] = system: human umbilical vein endothelial cells (HUVEC); conditions: 100 ng/ml VEGF-A
Method: Human umbilical vein endothelial cells (HUVECs; Neuromics, Edina, Minn.) and HUVECs immortalized with h-TERT (ATCC CRL-4053, ATCC, Manassas, Va.) were cultured in endothelial cell growth media EGM-2 (Lonza, Basel, Switzerland). Lewis Lung Carcinoma (LLC) cells (ATCC CRL-1642, ATCC, Manassas, Va.) were grown in RPMI 1640 medium supplemented with 10% FBS, 1% glutamine, 1% penicillin-streptomycin and 1% sodium pyruvate. Female C57BL/6 wild-type (WT) mice were used as recipients (bred at the University of Minnesota specific pathogen free environment animal facility). All animals were sex and aged matched (6-8 weeks). All experimental protocols were approved by the University of Minnesota Institutional Animal Care and Use Committee. VEGF-A165 was purchased from R & D Systems (Minneapolis, Minn.). GELTREX Low-growth factor basement membrane matrix (Thermo Fisher Scientific, Inc., Waltham Mass.) was used for in vitro tube formation assay.
HUVEC were plated in 0.2% gelatin coated 96-well plates and allowed to attach for 24 hours. Subsequently they were starved in EBM-2 with 2% serum overnight. […] Cell viability was determined by CCK-8 assay (Dojindo Molecular Technologies, Inc., Rockville, Md.). VEGF-A induced effect was calculated by subtracting negative control values from all experimental groups. Proliferation was then calculated as percentage of the positive control.

[4] = system: Lewis Lung Carcinoma (LLC) MATRIGEL plugs, tumor blood vessels (CD31)
Method: FIG. 11. […] Tumor cells were injected into groups of mice subcutaneously in […] plugs. […] Histograms show mean levels of blood vessel length and branch points.
In another aspect, this disclosure describes methods of inhibiting angiogenesis in a subject. Generally, the methods involve co-administering cell-permeable iron and an anti-angiogenic chemotherapeutic agent. […] (FIG. 7).
One million LLC cells (in PBS) were mixed with […] (Corning, Inc., Corning, N.Y.) in a 3:1 ratio and injected subcutaneously into the dorsal flanks (bilateral sites) of 6-8 week old female C57BL/6 wild-type mice. Experimental […] plugs contained 200 μM FAC. Four days later, mice were treated with either saline (negative control) or 20 mg/kg FAC (in PBS) on alternate days for two weeks. After two weeks, mice were sacrificed, tumor plugs removed and photographed, a part of the […] plugs was snap-frozen, and another part of the […] plugs was fixed in 10% neutral formalin. Frozen tumor plugs (n=5 for saline and n=7 for FAC) were sectioned (15 μm), fixed with acetone at −20° C. for 10 minutes, rehydrated, and blocked in 1% BSA. Slides were then stained with PE-conjugated anti-mouse CD31 (1:100) overnight at 4° C., washed three times with PBS, stained with FITC-conjugated anti-alpha-SMA (1:500) for one hour at room temperature and counterstained with DAPI. Two sections per tumor plug were stained. Random areas (5-20) were imaged at 10× magnification using a Nikon AZ 100M Fluorescence Macro scope and at 20× magnification using a Leica DM5500 B microscope. CD31 vessel length and branching points (nodes) were quantified by morphometric analyses of fluorescent digital images using Reindeer Games plug-in functions for Adobe Photoshop, as previously described (Wild et al., 2000, Microvac Res 59(3):368-376). CD31 positive vessels co-staining with alpha- SMA were quantified similarly to quantitate mature vessels. Data in FIG. 11 show representative images of tumor sections stained with rat anti-mouse CD31-phycoerythrin conjugate.

[5] = system: MDA-MB-231-luc triple negative breast cancer cell line; conditions: 100 μM FAC alone without radiation, five days
Method: FIG. 12. […] Triple negative breast cancer cell line, MDA-MB-231-luc, was exposed to different doses of ionizing radiation (X-Ray) in the presence and absence of 100 μM FAC. Sets of cultures seeded at the same cell density were kept as a control for radiation-induced cell death.
500,000 highly metastatic human breast cancer cells (MDA-MB-231-luc, Caliper Life Sciences, PerkinElmer Inc., Hopkinton, Mass.) were seeded into six-well plates in RPMI-1640 medium (3.0 ml) supplemented with 10% fetal bovine serum and antibiotics. After four hours to allow cell attachment, sets of cultures were treated with 100 μM FAC. Equal volume of complete medium was added to control cultures. One of the plates was kept aside without any radiation. Other sets of cultures were exposed to ionizing radiation (X-ray) of varying doses. After radiation, cells were cultures for five days. Live cells were stained with Hoechest 33342 dye and photographed under UV light.

[6] = system: Burkitt's B-lymphoma cells; conditions: 14 days, 2 cells/well-50 cells/well
Method: FIG. 13. […] Burkitt's B-lymphoma cells were treated with FAC at different concentrations. Treated cells grown for 14 days at different cell density (2 cells/well-50 cells/well).

[7] = system: Burkitt's lymphoma cells; assay: Lymphoma cell growth in vitro, FAC versus FC (FIG. 14); type: cell-based
Method: FIG. 14. […]. Burkitt's lymphoma cells were treated with either ferric ammonium citrate (FAC) or ferric citrate (FC). […]

[8] = system: MA148 ovarian cancer cells
Method: CI, combination index. CI<1.0 indicates synergy. Compusyn program (ComboSyn, Inc., Paramus, N.J.) was used to calculate CI and generate isobologram.
In these experiments, varying concentrations of the two reagents are added to tumor cells in an array format. Cytotoxicity was determined by CCK8 assay after 24 hours. […] An antagonistic effect (competition) would result in hyperbolic (bell-shaped) curve above the dotted line (additive effect).
Cells were allowed to attach for 24 hours after which they were pretreated with FAC 200 μM for 24 hours. […] After 24 hours, CCK-8 (10 μl) was added to each well and one hour later, absorbance at 450 nm was measured. Viability was calculated as percentage of the cells grown in complete medium (FIG. 4). […] Isobologram was generated using Compusyn program (ComboSyn, Inc., Paramus, N.J.). Dotted line is the predicted additive effect between two compounds. Values below the dotted line indicate synergy.

[9] = system: HUVECs; conditions: FAC 200 μM for 24 hours, complete medium, eight hours recording
Method: HUVECs were plated in 60 mm plates and allowed to grow and attach for 24 hours. Subsequently, one plate was treated with FAC 200 μM for 24 hours. Control and treated cells were trypsinized and 50,000 live cells were plated in 8 well (8W10E) electric cell substrate impedance sensing plate (ECIS, Applied BioPhysics, Inc., Troy, N.Y.). Cell attachment and spreading was confirmed by measuring electrical impedance. After reaching stable values of impedance in ohms, a clear wound of 250 micrometer was generated by applying elevated electrical pulse to the defined electrode. Wounded area is clear of cells and confirmed by a decrease in impedance. Cell movement into the wounded areas was recorded for eight hours at 15 minute intervals. Cell migration into the wounded area increases impedance and was continually recorded over a period of eight hours (FIG. 10). Error bars represent standard deviation (SD).

[10] = 20 mg/kg FAC on alternate days for two weeks

For `COc1cccc2c1C(=O)c1c(O)c3c(c(O)c1C2=O)C[C@@](O)(C(=O)CO)C[C@@H]3O[C@H]1C[C@H](N)[C@H](O)[C@H](C)O1` [DOX, Doxorubicin, reference compound], the “Dose DOX (DOX alone for this Fa)” value ([1]; Fa 0.88386) was 47050.0 and the “Dose DOX (DOX alone for this Fa)” value ([1]; Fa 0.95196) was 178095.
Work on `N.N.O=C([O-])C1(C(=O)[O-])CCC1.[Pt+2]` [carboplatin, reference compound] yielded an IC50 [2] of 150 µM.
With ferric ammonium citrate [FAC] the “Dose FAC (FAC alone for this Fa)” value ([1]; Fa 0.88386) was 2644.47, the “Dose FAC (FAC alone for this Fa)” value ([1]; Fa 0.95196) was 6060.28 and the “inhibition of VEGF-A-induced cell proliferation” value ([3]; 50 μM FAC, 48 hours) was “complete inhibition”. The “inhibition of VEGF-A-induced endothelial cell proliferation” value ([3]; 200 μM FAC, 24 hours) was “completely inhibited”, the total vessel length [4, 10] was “inhibited” and the vessel branches [4, 10] was “inhibited”. For the same compound, the “CD31 positive vessel density” value ([4]; systemic injection of FAC, compared to mice receiving saline) was “significantly reduced”, the cell viability [5] was “significant decrease in cell viability” and the “colony formation (clonogenic growth)” value [6] was “completely inhibited”. The “inhibition of lymphoma cell growth” value [7] was “effective”, the “potency relative to ferric citrate at inhibiting lymphoma cell growth” value [7] was “more potent than ferric citrate (FC)” and the “Dose FAC (FAC alone for this Fa)” value ([8]; Fa 0.24288) was 121.297. For the same compound, the “Dose FAC (FAC alone for this Fa)” value ([8]; Fa 0.24359) was 121.991, the “Dose FAC (FAC alone for this Fa)” value ([8]; Fa 0.28253) was 164.074 and the “Dose FAC (FAC alone for this Fa)” value ([8]; Fa 0.29392) was 178.068. The “Dose FAC (FAC alone for this Fa)” value ([8]; Fa 0.35541) was 269.444, the “Dose FAC (FAC alone for this Fa)” value ([8]; Fa 0.36087) was 279.043 and the “Dose FAC (FAC alone for this Fa)” value ([8]; Fa 0.49929) was 645.092. For the same compound, the “Dose FAC (FAC alone for this Fa)” value ([8]; Fa 0.61254) was 1272.12, the “Dose FAC (FAC alone for this Fa)” value ([8]; Fa 0.66880) was 1824.65 and the “Dose FAC (FAC alone for this Fa)” value ([8]; Fa 0.87322) was 11126.4. The “endothelial cell migration (electrical impedance, real time)” value [9] was “inhibits” and the IC50 [2] was 200 µM.
For ferric citrate [FC], the “inhibition of lymphoma cell growth” value [7] was “effective”.
